Measurements taken from patent US20220202822A1, “8-SUBSTITUTED ARYL VINYL XANTHINE DERIVATIVES AND USES THEREOF” (SUNSHINE LAKE PHARMA CO., LTD., priority 2019, published 2022).

Columns and labels:
[1] = biological target: T1, human adenosine A2A receptor (Homo sapiens, UniProt P29274); test: Antagonizing effect on human adenosine A2A receptor (cAMP, TR-FRET, NECA-stimulated HEK-293 cells); format: cell-based; conditions: inhibition of cAMP produced by NECA (3 nM), HEK-293 cells expressing human recombinant A2A receptor
T1 construct: expressed in transfected cells; host or cells: HEK-293
T1 sequence (P29274 whole entry): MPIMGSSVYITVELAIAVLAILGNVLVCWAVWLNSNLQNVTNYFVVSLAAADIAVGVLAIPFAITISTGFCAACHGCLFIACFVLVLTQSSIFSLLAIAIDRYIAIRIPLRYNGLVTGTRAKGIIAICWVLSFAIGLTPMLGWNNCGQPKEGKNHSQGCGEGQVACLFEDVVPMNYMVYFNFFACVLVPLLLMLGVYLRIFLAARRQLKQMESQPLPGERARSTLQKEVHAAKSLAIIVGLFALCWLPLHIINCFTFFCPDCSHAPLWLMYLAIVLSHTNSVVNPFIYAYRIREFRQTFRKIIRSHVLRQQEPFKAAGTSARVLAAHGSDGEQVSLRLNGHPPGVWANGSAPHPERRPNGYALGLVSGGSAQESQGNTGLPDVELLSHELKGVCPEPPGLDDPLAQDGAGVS
Protocol: The experimental system uses human recombinant adenosine A2A receptor, which is stably expressed in HEK-293 cell line. HEK-293 cells were inoculated into culture plate at a density of 1.25×10^5 cells /mL. The medium was changed by modified HBSS solution with pH 7.4, different concentrations of test compounds (10 μM, 1 μM, 0.1 μM, 10 nM, 1 nM, 0.1 nM) and solvents (PBS with 0.1% DMSO) were added, and the plate was incubated at 37° C. for 10 min. cAMP (cyclic adenosine monophosphate) concentration in culture medium was detected by TR-FRET method. NECA was used as a positive control in this experiment, (1) test compounds alone were used to stimulate cells to produce a certain amount of cAMP, and then NECA (0.1 μM) alone was used to stimulate cells to produce a certain amount of cAMP. A test compound is considered to have agonistic activity on adenosine A2A receptor if the test compound alone stimulates cells to produce cAMP more than 50% of the amount of cAMP produced by NECA (0.1 μM) alone. (2) All cells were first incubated with test compounds and then stimulated with NECA (3 nM). In addition, NECA (3 nM) alone was used to stimulate cells to produce a certain amount of cAMP. […] IC50 was calculated using MathIQ™ (ID Business Solutions Ltd., UK) through nonlinear, least squares regression equation analysis.

[2] = Pharmacokinetic evaluation in rats after intravenous or intragastric administration; format: in vivo, SD rats; conditions: for AUC(0-inf) / AUC(0-t) / Cmax / MRT inf / Tmax / clearance / half-life: SD, rat, plasma
Protocol: The LC-MS/MS system for analysis includes the Agilent 1200 series vacuum degasser, a quaternary pump, an orifice plate sampler, a thermostatted column oven, and an API4000Qtrap triple quadrupole mass spectrometer with an electrospray ionization source (ESI).
Waters ACQUITY UPLC CSH C18, 2.1×50 mm, 1.7 μm column was used for analysis, and 0.8 μL of sample was injected. Analytical conditions: mobile phase was H2O+2 mM HCOONH4 (ammonium formate)+0.1% FA (formic acid) (mobile phase A) and MeOH (methanol)+2 mM HCOONH4 (ammonium formate)+0.1% FA (formic acid) (mobile phase B). Flow rate was 0.7 mL/min.
The experiment was divided into two groups: one was administered by intravenous injection, and the other was administered by intragastric administration. The compound of the present invention was administered to a test animal (overnight fast for 12 hours) in the form of 10% DMA (heating)+60% PEG400+30% saline solution. For the group of intravenous administration, the administration dose was 1 mg/kg, and vein blood samples (0.3 mL) were collected at the time points of 0.083, 0.25, 0.5, 1.0, 2.0, 5.0, 7.0 and 24 h after administration. EDTA-K2 as anticoagulant was added into the blood vessel. The plasma solutions were collected by centrifuging each blood sample at 3,000 rpm or 4,000 rpm for 10 minutes and kept at −20° C. or −70° C. For the group of intragastric administration, the administration dose was 5 mg/kg, and vein blood samples (0.3 mL) were collected at the time points of 0.25, 0.5, 1.0, 2.0, 5.0, 7.0 and 24 h after administration. EDTA-K2 as anticoagulant was added into the blood vessel. The plasma solutions were collected by centrifuging each blood sample at 3,000 rpm or 4,000 rpm for 10 minutes and kept at −20° C. or −70° C.
20 μL of plasma was taken, 120 μL of IS working solution was added to the plasma, and the plasma mixture was vortexed for 2 min. The mixed solution was then centrifuged at 12,000 rpm for 2 min. 100 μL of the supernatant was taken, 110 μL of MeOH/H2O (v/v=1/1) was added, and the solution was vortexed for 2 minutes, then 5 μL was taken for inj ection into the LC-MS/MS system.

[3] = Pharmacokinetic evaluation in beagles after intravenous or intragastric administration; format: in vivo, beagle
Protocol: The LC/MS/MS system for analysis includes the Agilent 1200 series vacuum degasser, a quaternary pump, an orifice plate sampler, a thermostatted column oven, and an API4000Qtrap triple quadrupole mass spectrometer with an electrospray ionization source (ESI).
Waters xbridge C18, 2.1×50 mm, 3.5 μm column was used for analysis, and 0.5 μL of sample was injected. Analytical conditions: mobile phase consisting of mobile phase A (H2O+2 mM HCOONH4 (ammonium formate) +0.1% FA (formic acid)) and mobile phase B (MeOH (methanol)+2 mM HCOONH4 (ammonium formate)+0.1% FA (formic acid)). Flow rate was 0.7 mL/min.
The experiment was divided into two groups: one was administered by intravenous injection, and the other was administered by intragastric administration. The compound of the present invention was administered to a test animal in the form of 10% DMA (heating)+60% PEG400+30% saline solution. For the group of intravenous administration, the administration dose was 1 mg/kg, and vein blood samples (0.3 mL) were collected at the time points of 0.083, 0.25, 0.5, 1.0, 2.0, 4.0, 6.0, 8.0 and 24 h after administration. The plasma solutions were collected (EDTA-K2 as anticoagulant) by centrifuging each blood sample at 3,000 rpm or 4,000 rpm for 10 minutes and then kept at −20° C. or −70° C. For the group of intragastric administration, the administration dose was 5 mg/kg, and vein blood samples (0.3 mL) were collected at the time points of 0.25, 0.5, 1.0, 2.0, 5.0, 7.0 and 24 h after administration. The plasma solutions were collected (EDTA-K2 as anticoagulant) by centrifuging each blood sample at 3,000 rpm or 4,000 rpm for 10 minutes and then kept at −20° C. or −70° C.
10 μL of plasma was taken, 120 μL of IS working solution was added to the plasma, and the plasma mixture was vortexed for 2 min. The mixed solution was then centrifuged at 12,000 rpm for 2 min. 80 μL of the supernatant was taken, 140 μL of methanol/H2O (v/v =1/1) was added, and the solution was vortexed for 2 minutes, then 1.0 μL was taken for injection into the LC-MS/MS system. LC-MS/MS method was used to detect the concentration of target compounds, and non-compartment model was used to calculate pharmacokinetic parameters, and the results were shown in table C.

[4] = po, intragastric administration, 5 mg/kg
[5] = intragastric administration, 5 mg/kg
[6] = beagle, dog, plasma, intravenous injection, 1 mg/kg
[7] = beagle, dog, plasma, po, intragastric administration, 5 mg/kg

SMILES	IC50 [1] [nM]	AUC(0-inf) ([2]; intravenous injection, 1 mg/kg) [ng·h/mL]	AUC(0-t) ([2]; intravenous injection, 1 mg/kg) [ng·h/mL]	Cmax ([2]; intravenous injection, 1 mg/kg) [ng/mL]	MRT inf ([2]; intravenous injection, 1 mg/kg) [h]	Tmax ([2]; intravenous injection, 1 mg/kg) [h]	clearance ([2]; intravenous injection, 1 mg/kg) [mL/min/kg]	half-life ([2]; intravenous injection, 1 mg/kg) [h]	AUC(0-inf) [2, 4] [ng·h/mL]	AUC(0-t) [2, 4] [ng·h/mL]	Cmax [2, 4] [ng/mL]	MRT inf [2, 4] [h]	Tmax [2, 4] [h]	half-life [2, 4] [h]	F [2, 5] [%]	Vss ([2]; intravenous injection, 1 mg/kg) [kg⁻¹]	further results
CCn1c(=O)c2c(nc(/C=C/c3ccc(OC4CCC(F)(F)CC4)cc3)n2C)n(CC)c1=O [Example 6, (E)-8-(4-((4,4-difluorocyclohexyl)oxy)styryl)-1,3-diethyl-7-methyl-1H-purine-2,6(3H,7H)-dione]	1480																
CCn1c(=O)c2c(nc(/C=C/c3ccc(OC4CCS(=O)(=O)CC4)cc3)n2C)n(CC)c1=O [Example 1, (E)-8-(4-((1,1-dioxidotetrahydro-2H-thiopyran-4-yl)oxy)styryl)-1,3-diethyl-7-methyl-1H-purine-2,6(3H,7H)-dione]	2510	4360	4340	879	4.26	0.083	3.82	3.35	32300	32100	3660	5.2	1.67	3.39	148.2	0.977	AUC(0-inf) [3, 6]: 56300 ng·h/mL; AUC(0-t) [3, 6]: 25400 ng·h/mL; Cmax [3, 6]: 1870 ng/mL; MRT inf [3, 6]: 41.5 h; Tmax [3, 6]: 1 h; clearance [3, 6]: 0.296 mL/min/kg; half-life [3, 6]: 30.5 h; AUC(0-inf) [3, 7]: 114000 ng·h/mL; AUC(0-t) [3, 7]: 40300 ng·h/mL; Cmax [3, 7]: 2530 ng/mL; MRT inf [3, 7]: 54 h; Tmax [3, 7]: 4.67 h; half-life [3, 7]: 36.9 h; F [3, 5]: 38.7%; Vss ([3]; intravenous injection, 1 mg/kg): 0.737 kg⁻¹
CCn1c(=O)c2c(nc(/C=C/c3ccc(OC4CCS(=O)(=O)CC4)nc3)n2C)n(CC)c1=O [Example 4, (E)-8-(2-(6-((1,1-dioxidotetrahydro-2H-thiopyran-4-yl)oxy)pyridin-3-yl)vinyl)-1,3-diethyl-7-methyl-1H-purine-2,6(3H,7H)-dione]	2990																
CCn1c(=O)c2c(nc(/C=C/c3ccc(OC4CCS(=O)(=O)CC4)c(F)c3)n2C)n(CC)c1=O [Example 2, (E)-8-(4-((1,1-dioxidotetrahydro-2H-thiopyran-4-yl)oxy)-3-fluorostyryl)-1,3-diethyl-7-methyl-1H-purine-2,6(3H,7H)-dione]	3250	4230	4180	985	4.35	0.083	3.94	4	24400	23700	3110	5.94	1.67	4.77	110.2	1.03	
